Laboratory results: the supplement of paper PMC10307832

How the values were obtained:
Assay in all cases: relative viability (nuclei count vs DMSO), 5 days (fraction); higher = more cells survive
Wnt-C59 + Vorinostat = compound: CC1=NC=CC(=C1)C2=CC=C(C=C2)CC(=O)NC3=CC=C(C=C3)C4=CN=CC=C4 [Wnt-C59] + O=C(CCCCCCC(=O)Nc1ccccc1)NO [Vorinostat] (partner 1 µM)
Method in brief: (§1)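 Five library-drug doses in √10 steps were combined with a fixed anchor-drug dose, or a single drug was given alone, by pin tool to lung cancer cell lines in 1536-well plates the day after seeding. Nuclei were stained and counted after 5 days. Relative viability is the nuclei count in treated wells over that in vehicle wells, taken as the median of duplicate plates.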

Wnt-C59 + Crizotinib = compound: CC1=NC=CC(=C1)C2=CC=C(C=C2)CC(=O)NC3=CC=C(C=C3)C4=CN=CC=C4 [Wnt-C59] + C[C@@H](Oc1cc(-c2cnn(C3CCNCC3)c2)cnc1N)c1c(Cl)ccc(F)c1Cl [Crizotinib] (partner 1 µM)
Method in brief: as §1

Lapatinib + Luminespib = compound: CS(=O)(=O)CCNCc1ccc(-c2ccc3ncnc(Nc4ccc(OCc5cccc(F)c5)c(Cl)c4)c3c2)o1 [Lapatinib] + CCNC(=O)c1noc(-c2cc(C(C)C)c(O)cc2O)c1-c1ccc(CN2CCOCC2)cc1 [Luminespib] (partner 0.01 µM)
Method in brief: as §1

Wnt-C59 + Trametinib = compound: CC1=NC=CC(=C1)C2=CC=C(C=C2)CC(=O)NC3=CC=C(C=C3)C4=CN=CC=C4 [Wnt-C59] + CC(=O)Nc1cccc(-n2c(=O)n(C3CC3)c(=O)c3c(Nc4ccc(I)cc4F)n(C)c(=O)c(C)c32)c1 [Trametinib] (partner 0.02 µM)
Method in brief: as §1

Cell Line	relative viability (Wnt-C59 + Vorinostat; first compound 0.001 µM)	relative viability (Wnt-C59 + Vorinostat; first compound 0.01 µM)	relative viability (Wnt-C59 + Vorinostat; first compound 0.03162 µM)	relative viability (Wnt-C59 + Vorinostat; first compound 0.1 µM)	relative viability (Wnt-C59 + Crizotinib; first compound 0.001 µM)	relative viability (Wnt-C59 + Crizotinib; first compound 0.01 µM)	relative viability (Wnt-C59 + Crizotinib; first compound 0.03162 µM)	relative viability (Wnt-C59 + Crizotinib; first compound 0.1 µM)	relative viability (Lapatinib + Luminespib; first compound 0.06325 µM)	relative viability (Lapatinib + Luminespib; first compound 0.2 µM)	relative viability (Lapatinib + Luminespib; first compound 0.6325 µM)	relative viability (Lapatinib + Luminespib; first compound 2 µM)	relative viability (Wnt-C59 + Trametinib; first compound 0.001 µM)	relative viability (Wnt-C59 + Trametinib; first compound 0.01 µM)	relative viability (Wnt-C59 + Trametinib; first compound 0.03162 µM)	relative viability (Wnt-C59 + Trametinib; first compound 0.1 µM)	relative viability (Lapatinib + Luminespib; first compound 0.02 µM)
NCI-H596	0.601	0.603	0.59	0.76	0.972	1	1.32	0.932	0.879	1.04	0.944	0.756	0.734	0.704	0.879	0.876	–
NCI-H647	0.577	0.582	0.957	0.585	1.12	1.15	1.2	0.909	0.309	0.169	0.32	0.14	0.503	0.404	0.528	0.47	0.119
NCI-H650	0.45	0.449	0.464	0.448	0.699	0.75	0.874	0.691	0.81	0.729	0.862	0.854	0.984	0.934	1.08	1.05	–
NCI-H661	0.815	0.726	0.854	0.755	1	1.05	0.981	0.948	0.925	0.814	0.807	0.584	0.567	0.559	0.593	0.631	0.887
NCI-H727	1.14	1.16	1.09	1.14	0.843	0.779	0.944	0.682	–	0.285	0.278	0.431	0.399	0.369	0.355	0.406	–
NCI-H838	0.709	0.704	0.786	0.708	0.839	0.826	0.902	0.916	0.341	0.381	0.258	0.283	0.538	0.55	0.491	0.482	0.25
NCI-H1355	0.639	0.529	0.601	0.596	1.01	1.05	1.06	0.966	0.646	0.634	0.685	0.441	0.455	0.404	0.423	0.373	–
NCI-H1437	0.838	0.806	0.829	0.8	0.996	0.867	0.988	0.89	1.21	1.16	1.13	1.02	0.51	0.562	0.481	0.579	0.961
NCI-H1650	0.69	0.638	0.606	0.516	1.08	1.02	0.896	0.89	0.202	0.198	0.2	0.2	0.642	0.716	0.684	0.774	0.19
NCI-H1651	0.557	0.6	0.597	0.63	0.856	0.855	0.854	0.864	0.672	0.935	0.695	0.712	0.857	0.875	0.783	0.773	0.712
NCI-H1666	0.964	1	0.913	1.05	0.989	1.05	0.902	1.1	0.955	0.922	0.725	0.502	0.894	0.762	0.94	0.79	0.869
NCI-H1734	0.76	0.822	0.833	0.816	0.642	0.618	0.773	0.66	0.196	0.189	0.186	0.174	0.675	0.744	0.77	0.632	0.22
NCI-H1755	0.721	0.71	0.744	0.752	0.899	0.826	0.827	0.839	0.423	0.349	0.579	0.378	0.797	0.792	0.759	0.719	0.421
NCI-H1915	0.487	0.492	0.629	0.526	0.771	0.852	1.02	0.912	0.847	0.832	0.707	0.848	0.302	0.304	0.346	0.31	–
NCI-H1944	0.621	0.552	0.57	0.621	1.04	0.971	1.18	1.07	0.435	0.623	0.552	0.522	0.433	0.449	0.431	0.369	0.723
NCI-H1975	0.727	0.76	0.756	0.706	0.98	0.936	1.04	0.948	0.122	0.239	0.212	0.206	0.414	0.38	0.33	0.349	0.256
NCI-H1993	0.78	0.758	0.978	0.394	0.932	0.981	0.878	1.9	–	0.737	0.749	0.476	0.634	0.486	0.507	0.465	0.824

Cell Line	relative viability (Wnt-C59 + Vorinostat; first compound 0.001 µM)	relative viability (Wnt-C59 + Vorinostat; first compound 0.01 µM)	relative viability (Wnt-C59 + Vorinostat; first compound 0.03162 µM)	relative viability (Wnt-C59 + Vorinostat; first compound 0.1 µM)	relative viability (Wnt-C59 + Crizotinib; first compound 0.001 µM)	relative viability (Wnt-C59 + Crizotinib; first compound 0.01 µM)	relative viability (Wnt-C59 + Crizotinib; first compound 0.03162 µM)	relative viability (Wnt-C59 + Crizotinib; first compound 0.1 µM)	relative viability (Lapatinib + Luminespib; first compound 0.06325 µM)	relative viability (Lapatinib + Luminespib; first compound 0.2 µM)	relative viability (Lapatinib + Luminespib; first compound 0.6325 µM)	relative viability (Lapatinib + Luminespib; first compound 2 µM)	relative viability (Wnt-C59 + Trametinib; first compound 0.001 µM)	relative viability (Wnt-C59 + Trametinib; first compound 0.01 µM)	relative viability (Wnt-C59 + Trametinib; first compound 0.03162 µM)	relative viability (Wnt-C59 + Trametinib; first compound 0.1 µM)	relative viability (Lapatinib + Luminespib; first compound 0.02 µM)
NCI-H2009	0.722	0.679	0.758	0.712	0.941	1.11	1.06	1.03	1.09	1.08	0.931	0.984	0.267	0.315	0.267	0.294	0.953
NCI-H2023	0.757	0.499	0.742	0.487	0.701	0.65	0.686	0.594	0.593	0.723	0.751	0.619	0.608	0.579	0.679	0.543	0.696
NCI-H2085	0.758	0.717	0.811	0.756	0.929	0.803	0.953	0.823	0.402	0.396	0.447	0.322	0.599	0.577	0.58	0.614	–
NCI-H2087	0.905	0.336	0.788	0.764	0.737	0.884	0.792	0.778	0.169	0.169	0.162	0.161	0.203	0.176	0.205	0.259	–
NCI-H2126	0.841	0.62	0.788	0.76	0.994	0.998	0.987	1.01	0.729	0.833	0.859	0.775	0.579	0.532	0.573	0.581	–
NCI-H2170	0.803	0.795	0.834	0.809	1.19	1.09	1.46	1.11	0.385	0.433	0.462	0.223	0.923	0.864	1.03	0.974	0.664
NCI-H2228	0.654	0.657	0.587	0.838	0.509	0.393	0.563	0.466	0.128	0.145	0.143	0.123	0.549	0.574	0.477	0.499	0.137
NCI-H2347	0.649	0.644	0.572	0.717	0.673	0.598	0.612	0.653	0.156	0.638	0.523	0.361	0.357	0.271	0.318	0.194	–
NCI-H2405	1	1.05	1.15	1.17	0.833	0.806	0.812	0.779	0.469	0.52	0.567	0.467	0.655	0.587	0.505	0.574	0.696
NCI-H3122	1.05	1.05	0.989	0.971	0.28	0.268	0.283	0.249	0.0758	0.0797	0.0807	0.0854	0.18	0.243	0.207	0.218	0.103
PC-3 [JPC-3]	0.781	0.917	0.785	1.13	0.979	1.01	1.09	0.965	0.665	0.648	0.722	0.477	0.78	0.736	0.623	0.785	0.74
PC-14	0.815	0.96	0.886	0.723	0.999	0.857	0.818	0.848	0.147	0.12	0.192	0.149	0.97	0.911	0.9	0.729	–
RERF-LC-KJ	0.746	0.671	0.825	0.715	0.868	0.764	0.878	0.852	1.25	1.16	1.2	0.797	0.936	0.884	0.962	0.753	1.13
SK-LU-1	0.672	0.768	0.81	0.682	0.869	0.935	0.91	1.03	0.223	0.238	0.175	0.2	0.561	0.506	0.533	0.422	0.176
SK-MES-1	1.12	1.11	1.21	1.03	1.01	0.973	1.07	0.959	0.665	0.625	0.482	0.326	0.61	0.556	0.511	0.518	0.738
SW 1573	0.801	0.673	0.778	0.662	0.771	0.764	0.746	0.825	0.23	0.387	0.233	0.146	0.515	0.551	0.582	0.515	0.293
